The values below come from article PMC11230136 (Cell reports, 2024).

Data set [1] has as its system pilocarpine-induced SE mice. As to the kind of experiment: Pilocarpine-induced status epilepticus.
A short description of data set [2]: In vivo toxicity / tolerability observation. The settings on record: diet 20, 67 or 200 ppm for 14 days. More on the design: species or system mouse.
In data set [3] the target is activated c-Abl immunoprecipitated from neurons (Rattus norvegicus, UniProt A0ABK0LKB8). As to the kind of experiment: In vitro phosphorylation kinase assay. The class given is biochemical. The settings on record: pre-incubation with 5 μM inhibitor (controls).
Sequence of activated c-Abl immunoprecipitated from neurons (A0ABK0LKB8 1-1124): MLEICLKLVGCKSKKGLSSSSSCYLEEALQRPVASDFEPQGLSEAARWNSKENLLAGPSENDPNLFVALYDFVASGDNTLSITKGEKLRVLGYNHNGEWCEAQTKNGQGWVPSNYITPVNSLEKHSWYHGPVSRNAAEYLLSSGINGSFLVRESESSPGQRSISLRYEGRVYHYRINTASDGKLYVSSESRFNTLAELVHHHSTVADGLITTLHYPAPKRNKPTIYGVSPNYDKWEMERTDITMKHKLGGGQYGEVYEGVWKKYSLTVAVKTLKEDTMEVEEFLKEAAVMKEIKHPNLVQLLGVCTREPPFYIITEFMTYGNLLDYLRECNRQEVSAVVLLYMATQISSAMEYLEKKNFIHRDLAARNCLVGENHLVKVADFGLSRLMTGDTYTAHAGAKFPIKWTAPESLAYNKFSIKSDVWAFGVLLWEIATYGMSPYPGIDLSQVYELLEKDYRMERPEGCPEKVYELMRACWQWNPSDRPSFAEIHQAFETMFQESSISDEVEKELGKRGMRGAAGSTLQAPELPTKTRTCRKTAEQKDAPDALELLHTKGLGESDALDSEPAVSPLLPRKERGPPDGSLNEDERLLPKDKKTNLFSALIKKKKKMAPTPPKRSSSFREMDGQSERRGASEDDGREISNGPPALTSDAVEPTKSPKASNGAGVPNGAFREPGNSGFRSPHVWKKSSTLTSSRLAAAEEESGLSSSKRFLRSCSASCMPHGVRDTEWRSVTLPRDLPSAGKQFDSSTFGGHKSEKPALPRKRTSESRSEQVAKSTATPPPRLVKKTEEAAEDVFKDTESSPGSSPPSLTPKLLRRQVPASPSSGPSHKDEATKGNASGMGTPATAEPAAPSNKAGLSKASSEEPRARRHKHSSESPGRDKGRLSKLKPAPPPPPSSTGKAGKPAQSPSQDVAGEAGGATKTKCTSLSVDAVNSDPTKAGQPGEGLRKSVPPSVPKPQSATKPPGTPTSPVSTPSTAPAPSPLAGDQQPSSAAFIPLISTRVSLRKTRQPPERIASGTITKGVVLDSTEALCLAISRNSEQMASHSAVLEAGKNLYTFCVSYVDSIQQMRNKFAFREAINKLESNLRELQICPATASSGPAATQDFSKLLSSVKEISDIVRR
A further data set relates to hippocampal neurons. Put plainly: Apoptotic nuclei. The format is cell-based, rat. The settings on record: 1-h 100 μM NMDA, co-incubation with 5 μM inhibitor.
[4] abbreviates: diet for 15 days (neurotinib 67 ppm, nilotinib 200 ppm), 60 min post pilocarpine.
[5] abbreviates: i.p. pre-treatment 12.5 mg/kg for 3 days, 60 min post pilocarpine.

For the compound `Cc1cn(-c2cc(NC(=O)c3ccc(C)c(Nc4nccc(-c5cccnc5)n4)c3)cc(C(F)(F)F)c2)cn1` [nilotinib], in data set [1] (setting [4]), the “Mice with SE” value came out at 70% and the Total mortality entry is on record as “none”. Also, in data set [1] (diet for 15 days (neurotinib 67 ppm, nilotinib 200 ppm), mean ± SEM), the “Latency SE” value is given as 32.6 ± 6.1 min. Further, the “acute toxicity or changes in behavior” value in data set [2] is listed as “No signs of acute toxicity or changes in behavior”.
As for `Cc1ccc(NC(=O)c2ccc(CN3CCN(C)CC3)cc2)cc1Nc1nccc(-c2cccnc2)n1` [imatinib], in data set [3], the CRKII-GST phosphorylation result is given as “inhibits CRKII-GST phosphorylation”. Further, in data set [1] (setting [5]), the “Mice with SE” value was 68%, the “Mice with single seizures but no SE” value came out at 29% and the Total mortality is reported as 36%. In addition, in the data set on hippocampal neurons, the “apoptotic nuclei (Hoechst)” value is given as “apoptosis reduction”.
